In patent publication US7786116B2, “2-amino-quinoline derivatives useful as inhibitors of β-secretase (BACE)” (Janssen Pharmaceutica N.V., priority 2008, dated 2010):

Biological target: human BACE-1 (Homo sapiens, UniProt P56817)
Experiment: in vitro BACE Assay-1 (CEREP, fluorogenic substrate)
Type: biochemical
Conditions: for % Inh @ 1 μM / inhibition at 1 µM: test compound at 1 μM; for % Inh @ 10 μM / inhibition at 10 µM: test compound at 10 μM; for IC50: recombinant enzyme, pH 4.5, 60 min at 37° C.
Method: This assay was run by CEREP (Catalog Ref. 761-B, Referred to SOP No. 1C131; ERMOLIEFF, J., LOY, J. A., KOELSCH, G. and TANG, J., Proteolytic activation of recombinant pro-memapsin 2 (pro-BACE) studied with new fluorogenic substrates, Biochemistry, (2000) Vol. 39, p. 12450).
More specifically the assay, run at 50 μL in a 96 well plate, evaluated the effect of test compound on the activity of the human BACE-1 quantified by measuring the formation of Mca-S-E-V-N-L-NH2 from Mca-S-E-V-N-L-D-A-E-F-R-K(Dnp)-R—R—NH2, using a recombinant enzyme.
The test compound, reference compound or water (control) was added to a buffer containing 0.09 M sodium acetate (pH 4.5) and 0.25 μg BACE-1. Compound interference with the fluorimetric detection method due to autofluorescence was then checked by measurements at the wavelengths defined to evaluate the enzyme activity. Thereafter, the reaction was initiated by adding 7.5 μM of the substrate Mca-S-E-V-N-L-D-A-E-F-R-K(Dnp)-R—R—NH2 and the mixture was incubated for 60 min at 37° C. For control basal measurement, the substrate was omitted from the reaction mixture. Immediately after the incubation, the fluorescence intensity emitted by the reaction product Mca-S-E-V-N-L-NH2 was measured at λex=320 nm and λem=405 nm using a microplate reader (Ultra, Tecan). The standard inhibitory reference compound was OM99-2, which was tested in each experiment at several concentrations to obtain an inhibition curve from which its IC50 value was calculated.
Representative compounds of the present invention were tested in the assay as described above, with results as listed in Table 3, below.

Sequence of human BACE-1 (P56817 46-501): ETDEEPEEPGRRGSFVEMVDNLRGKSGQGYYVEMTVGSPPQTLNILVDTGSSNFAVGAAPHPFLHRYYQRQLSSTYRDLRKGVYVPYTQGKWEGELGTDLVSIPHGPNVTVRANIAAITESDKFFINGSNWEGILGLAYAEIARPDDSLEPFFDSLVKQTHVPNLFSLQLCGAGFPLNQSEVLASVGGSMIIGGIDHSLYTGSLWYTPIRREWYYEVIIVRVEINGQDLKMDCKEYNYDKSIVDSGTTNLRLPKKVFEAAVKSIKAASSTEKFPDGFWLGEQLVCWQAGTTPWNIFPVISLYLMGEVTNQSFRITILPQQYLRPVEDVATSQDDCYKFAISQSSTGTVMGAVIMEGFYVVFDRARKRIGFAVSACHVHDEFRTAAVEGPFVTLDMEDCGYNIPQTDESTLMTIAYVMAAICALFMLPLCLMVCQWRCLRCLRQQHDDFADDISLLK

| SMILES | % Inh @ 10 μM | IC50 | inhibition at 10 µM | other results |
| --- | --- | --- | --- | --- |
| CN(C(=O)CCC(c1cc2cc(-c3ccccc3F)ccc2nc1N)C1CCCCC1)C1CCCCC1 (single isomer, unassigned) [Compound 11] | – | – | – | % Inh @ 1 μM: 28% |
| CN(CCCC(c1cc2cc(-c3ccccc3F)ccc2nc1N)C1CCOCC1)CC1CCCCC1 (stereo not drawn) [Compound 13] | 77% | – | – | – |
| COc1cc2nc(N)c(C(CCn3cc(C(C)(C)C)nn3)C3CCOCC3)cc2cc1-c1ccccc1F (stereo not drawn) [Compound 17] | – | 1400 nM | 73% | – |
| COc1ccccc1-c1cc2cc(C(CCn3cc(C(C)(C)C)nn3)C3CCOCC3)c(N)nc2cc1OC (stereo not drawn) [Compound 20] | – | 890 nM | 92% | – |
| Nc1nc2ccc(-c3cccs3)cc2cc1C(CCC(=O)NC12CC3CC(CC(C3)C1)C2)C1CCOCC1 (stereo not drawn) [Compound 21] | – | 690 nM | – | inhibition at 1 µM: 87% |
| CCOc1cc2nc(N)c(C(CCn3cc(C(C)(C)C)nn3)C3CCOCC3)cc2cc1-c1ccccc1F (stereo not drawn) [Compound 22, 3-[3-(4-tert-Butyl-[1,2,3]triazol-1-yl)-1-(tetrahydro-pyran-4-yl)-propyl]-7-ethoxy-6-(2-fluoro-phenyl)-quinolin-2-ylamine] | – | 150 nM | 65% | – |
| Cn1ccnc1CN(CCC(C)(C)C)C(=O)CCC(c1cc2cc(-c3ccc[nH]3)ccc2nc1N)C1CCOCC1 (stereo not drawn) [Compound 24] | 93% | 1400 nM | – | – |
| Cn1ccnc1CN(CCC(C)(C)C)C(=O)CCC(c1cc2cc(-c3ccccc3)ccc2nc1N)C1CCOCC1 (stereo not drawn) [Compound 25] | 72% | 320 nM | – | – |
| Cn1ccnc1N(CCC(C)(C)C)C(=O)CCC(c1cc2cc(-c3ccccn3)ccc2nc1N)C1CCOCC1 (stereo not drawn) [Compound 27] | – | 1800 nM | 91% | – |
| Cn1ccnc1CN(CCC(C)(C)C)C(=O)CCC(c1cc2cc(-c3cccs3)ccc2nc1N)C1CCOCC1 (stereo not drawn) [Compound 31, 4-(2-Amino-6-thiophen-2-yl-quinolin-3-yl)-N-(3,3-dimethyl-butyl)-N-(1-methyl-1H-imidazol-2-ylmethyl)-4-(tetrahydro-pyran-4-yl)-butyramide] | – | 420 nM | 98% | inhibition at 1 µM: 79% |
| COc1ccccc1-c1ccc2nc(N)c(C(CCCN(CCC(C)(C)C)c3nccn3C)C3CCOCC3)cc2c1 (stereo not drawn) [Compound 36] | – | 500 nM | – | inhibition at 1 µM: 76% |
| Cn1ccnc1CN(CCC(C)(C)C)C(=O)CCC(c1cc2cc(-c3ccc(F)cc3)ccc2nc1N)C1CCOCC1 (stereo not drawn) [Compound 37] | 82% | – | – | – |
| Cn1ccnc1N(CCC(C)(C)C)C(=O)CCC(c1cc2cc(-c3cccc(F)c3)ccc2nc1N)C1CCOCC1 (stereo not drawn) [Compound 38] | – | 470 nM | 69% | – |
| Nc1nc2ccc(-c3ccccc3F)cc2cc1C(CCC(=O)N(CCN1CCCC1)C1CCCCC1)C1CCOCC1 (stereo not drawn) [Compound 41] | – | 450 nM | 65% | – |
| CC(C)(C)CCN(CCCC(c1cc2cc(-c3ccccc3F)ccc2nc1N)C1CCOCC1)CCN1CCOCC1 (stereo not drawn) [Compound 43, 3-[4-[(3,3-Dimethyl-butyl)-(2-morpholin-4-yl-ethyl)-amino]-1-(tetrahydro-pyran-4-yl)-butyl]-6-(2-fluoro-phenyl)-quinolin-2-ylamine] | – | – | 78% | – |
| Cn1ccnc1CN(CCC(C)(C)C)C(=O)CCC(c1cc2cc(-c3cccc4cc[nH]c34)ccc2nc1N)C1CCOCC1 (stereo not drawn) [Compound 49] | 99% | – | – | – |
| CCOc1ccc(-c2ccc3nc(N)c(C(CCC(=O)N(CCC(C)(C)C)Cc4nccn4C)C4CCOCC4)cc3c2)cc1 (stereo not drawn) [Compound 50] | 22% | – | – | – |
| CCOc1ccccc1-c1ccc2nc(N)c(C(CCC(=O)N(CCC(C)(C)C)Cc3nccn3C)C3CCOCC3)cc2c1 (stereo not drawn) [Compound 51, 4-[2-Amino-6-(2-ethoxy-phenyl)-quinolin-3-yl]-N-(3,3-dimethyl-butyl)-N-(1-methyl-1H-imidazol-2-ylmethyl)-4-(tetrahydro-pyran-4-yl)-butyramide] | – | 320 nM | 99% | – |
| COc1cc2nc(N)c(C(CCCN(CCN3CCOCC3)C3CCCCC3)C3CCOCC3)cc2cc1-c1ccccc1F (stereo not drawn) [Compound 52] | – | 3600 nM | 55% | – |
| COc1cc2nc(N)c(C(CCC(=O)N(CCN3CCOCC3)C3CCCCC3)C3CCOCC3)cc2cc1-c1ccccc1F (stereo not drawn) [Compound 53] | – | 2200 nM | 55% | – |
| Cn1ccnc1CN(CCC(C)(C)C)C(=O)CCC(c1cc2cc(-c3cccc(C(F)(F)F)c3)ccc2nc1N)C1CCOCC1 (stereo not drawn) [Compound 54] | 8% | – | – | – |
| Cn1ccnc1CN(CCC(C)(C)C)C(=O)CCC(c1cc2cc(-c3ccccc3C(F)(F)F)ccc2nc1N)C1CCOCC1 (stereo not drawn) [Compound 55] | 90% | 2400 nM | – | – |
| Cn1ccnc1CN(CCC(C)(C)C)C(=O)CCC(c1cc2cc(-c3ccccc3OC(F)(F)F)ccc2nc1N)C1CCOCC1 (stereo not drawn) [Compound 56] | 73% | – | – | – |

Continued, in another order:

| % Inh @ 10 μM | IC50 | inhibition at 10 µM | SMILES | other results |
| --- | --- | --- | --- | --- |
| 34% | – | – | Nc1nc2ccc(-c3ccccc3F)cc2cc1C(CCC(=O)NCCO)C1CCOCC1 (stereo not drawn) [Compound 1] | – |
| 59% | – | – | Nc1nc2ccc(-c3ccccc3F)cc2cc1C(CCC(=O)NCC1CC1)C1CCOCC1 (stereo not drawn) [Compound 2] | – |
| 35% | – | – | CN(CCCC(c1cc2cc(-c3ccccc3F)ccc2nc1N)C1CCOCC1)CC1CC1 (stereo not drawn) [Compound 3] | – |
| 71% | – | – | CN(CC1CC1)C(=O)CCC(c1cc2cc(-c3ccccc3F)ccc2nc1N)C1CCOCC1 (stereo not drawn) [Compound 4] | – |
| – | > 5000 nM | 43% | CC(C)(CO)CNCCCC(c1cc2cc(-c3ccccc3F)ccc2nc1N)C1CCOCC1 (stereo not drawn) [Compound 6] | – |
| – | 260 nM | 83% | CC(C)(C)CCNC(=O)CCC(c1cc2cc(-c3ccccc3F)ccc2nc1N)C1CCOCC1 (stereo not drawn) [Compound 7] | – |
| – | 830 nM | 47% | CC(C)(C)OCCNCCCC(c1cc2cc(-c3ccccc3F)ccc2nc1N)C1CCOCC1 (stereo not drawn) [Compound 10] | – |
| – | 350 nM | 74.5% | Nc1nc2ccc(-c3ccccc3F)cc2cc1C(CCC(=O)NCC1CCCCC1)C1CCOCC1 (stereo not drawn) [Compound 12] | – |
| – | 540 nM | 113% | CC(C)(C)OCCNC(=O)CCC(c1cc2cc(-c3ccccc3F)ccc2nc1N)C1CCOCC1 (stereo not drawn) [Compound 15] | – |
| – | > 620 nM | 88% | COc1cc2nc(N)c(C(CCCNCCC(C)(C)C)C3CCOCC3)cc2cc1-c1ccccc1F (stereo not drawn) [Compound 16] | – |
| 77% | – | – | CN(CC1CCCCC1)C(=O)CCC(c1cc2cc(-c3ccccc3F)ccc2nc1N)C1CCOCC1 (stereo not drawn) [Compound 18] | – |
| 14% | – | – | COc1cc2nc(N)c(C(CCC(=O)NCCC(C)(C)C)C3CCOCC3)cc2cc1-c1ccccc1F (stereo not drawn) [Compound 19] | – |
| – | 570 nM | – | Nc1nc2ccc(-c3ccccc3F)cc2cc1C(CCC(=O)NC12CC3CC(CC(C3)C1)C2)C1CCOCC1 (stereo not drawn) [Compound 23] | inhibition at 1 µM: 97% |
| – | 880 nM | 74% | CC(C)(C)CCN(CCCC(c1cc2cc(-c3ccccc3F)ccc2nc1N)C1CCOCC1)Cc1ccccn1 (stereo not drawn) [Compound 28] | – |
| – | 1500 nM | – | Cn1ccnc1CN(CCCC(c1cc2cc(-c3ccccc3F)ccc2nc1N)C1CCOCC1)CCC(C)(C)C (stereo not drawn) [Compound 29] | % Inh @ 1 μM: 54% |
| – | 390 nM | 68% | CC(C)(C)CCN(Cc1ccccc1)C(=O)CCC(c1cc2cc(-c3ccccc3F)ccc2nc1N)C1CCOCC1 (stereo not drawn) [Compound 34] | – |
| – | 330 nM | 116% | CC(C)(C)CCN(Cc1ccccn1)C(=O)CCC(c1cc2cc(-c3ccccc3F)ccc2nc1N)C1CCOCC1 (stereo not drawn) [Compound 35] | – |
| – | 350 nM | – | Cn1ccnc1CN(CCC(C)(C)C)C(=O)CCC(c1cc2cc(-c3ccccc3F)ccc2nc1N)C1CCOCC1 (stereo not drawn) [Compound 39] | % Inh @ 1 μM: 93% |
| – | 320 nM | 65% | CC(C)(C)CCN(Cc1cncs1)C(=O)CCC(c1cc2cc(-c3ccccc3F)ccc2nc1N)C1CCOCC1 (stereo not drawn) [Compound 42] | – |
| – | 530 nM | – | COc1ccccc1-c1ccc2nc(N)c(C(CCC(=O)N(CCC(C)(C)C)Cc3nccn3C)C3CCOCC3)cc2c1 (stereo not drawn) [Compound 45] | % Inh @ 1 μM: 94% |
| – | 370 nM | 58% | CC(C)(C)CCN(CCN1CCOCC1)C(=O)CCC(c1cc2cc(-c3ccccc3F)ccc2nc1N)C1CCOCC1 (stereo not drawn) [Compound 47, 4-[2-Amino-6-(2-fluoro-phenyl)-quinolin-3-yl]-N-(3,3-dimethyl-butyl)-N-(2-morpholin-4-yl-ethyl)-4-(tetrahydro-pyran-4-yl)-butyramide] | – |
